Source: publication PMC6770517, “Insight into the Antifungal Mechanism of Action of Human RNase N-terminus Derived Peptides” (International Journal of Molecular Sciences, 2019)
≈ marks a conversion by molar mass, not a printed value. Where no end group is shown, it is not given here.

Columns and labels:
C. albicans [1] = settings: as previously reported; cited from earlier work
in vitro = assay type: cell-based; settings: human
Procedure: The peptide cytoxicity was evaluated using the human monocytic THP1 cell line. The assay was performed in 96-well cell culture flat-bottom plates (Costar; Appleton Woods) in triplicate. THP-1 cultures were induced to macrophages by adding 2 ng/mL of colony-stimulating factor (R&D Systems, Germany). Peptides were serially diluted from 50 to 0.1 µM and added to 5 × 10^5 cells/mL. After 48 h of incubation, the cells were washed twice with 1× PBS, and fresh RPMI-1640 complete medium was added. Plates were then treated with 30 μL of a freshly prepared 0.01% resazurin solution and incubated overnight at 37 °C. The following day the change in color was observed and the fluorescence intensity was measured (λex560 nm, λem590 nm). The 50% growth inhibitory concentration (GIC50) was determined based on the resazurin fluorescence signal.

C. albicans [2] = assay: Minimum fungicidal concentration by CFU counting; assay type: cell-based, Candida albicans (ATCC 90028); settings: for MFC100, PBS / MFC100, Sabouraud Broth: C. albicans ~2 × 10^5 cells/mL, CFU counting, peptides 20 to 0.1 µM, mean ± SEM, two independent experiments in triplicate; for MFC100, PBS: 4 h at 30 °C in PBS; for MFC100, Sabouraud Broth: 4 h at 30 °C in Sabouraud nutrient broth
Procedure: C. albicans was cultured overnight in Sabouraud Dextrose broth at 30 °C, sub-cultured the next day in fresh media and grown to an optical density of 0.4 at 592 nm (mid log-phase). Cells were washed twice and diluted to ~2 × 10^5 cells/mL. Peptides serially diluted were added to the cells from 20 to 0.1 µM final concentration. C. albicans was incubated at 30 °C during 4h in Sabouraud nutrient broth or PBS. Following, the samples were plated onto Sabouraud Petri dishes and incubated at 30 °C overnight. Antifungal activity was expressed as the MFC, defined as the lowest peptide concentration required for more than 99% of microorganism killing. MFC of each peptide was determined from two independent experiments performed in triplicate for each concentration.

[3] = tested on: C. albicans planktonic cells; assay type: cell-based, Candida albicans (ATCC 90028); settings: 4 h
Procedure: Cell viability of C. albicans was assayed using the BacTiter-Glo™ Microbial Cell Viability kit (Promega), which measures the number of viable cells, by ATP quantification. ATP, as an indicator of metabolically active cells, is indirectly measured by a coupled luminescence detection assay. The luminescent signal is proportional to the amount of ATP required for the conversion of luciferin into oxyluciferin in the presence of luciferase. An overnight culture of C. albicans was used to inoculate fresh Sabouraud liquid culture, and logarithmic phase culture was grown to an OD592 of 0.2. RNase derived N-terminal peptides were added to 0.1 mL of cell culture at a final concentration from 0.025 to 20 μM. The C. albicans viability was followed after 4 h of incubation at 30 °C. 50 µL of incubation culture were mixed with 50 µL of BacTiter-Glo^TM reagent in a microtiter plate following the manufacturer instructions and incubated at room temperature for 10 min. Luminiscence was read on a Victor3 plate reader (PerkinElmer, Waltham, MA, USA) with a 1-s integration time. IC50 values were calculated by fitting the data to a dose-response curve.

C. albicans cells = assay: Minimal agglutination activity (MAC); assay type: cell-based, Candida albicans (ATCC 90028); settings: for MAC (minimal agglutination concentration): C. albicans in PBS, 1 h at 30 °C, peptides 0.01 to 20 μM, visual inspection, mean ± SEM, three replicates of two independent experiments
Procedure: C. albicans cells were grown at 30 °C to an OD592 of 1.0, diluted 10 times, centrifuged at 5000× g for 2 min, and resuspended in 1× PBS. An aliquot of 100 μL of the cellular suspension was treated with increasing peptide concentrations (from 0.01 to 20 μM) and incubated at 30 °C for 1 h. The aggregation behavior was observed by visual inspection, and the agglutinating activity is expressed as the minimum agglutinating concentration of the sample tested, as previously described. Images were taken using a 50× stereoscope microscope.

[4] = tested on: C. albicans cytoplasmic membrane; assay: Cell membrane depolarization assay (DiSC3); assay type: cell-based, Candida albicans (ATCC 90028); settings: mean ± SEM; for Membrane Depolarization ED50: DiSC3 probe, peptide 0.1 to 5 µM, 50 min, 20 °C, Hepes-KOH pH 7.2; for Membrane Depolarization Depolmax: maximum fluorescence value at final incubation time with 2 µM peptide, DiSC3
Procedure: Membrane depolarization was assayed by monitoring the DiSC3 fluorescence intensity change in response to changes in transmembrane potential as described previously. C. albicans cells were grown at 30 °C to the mid-exponential (OD592~0.4) and resuspended in 5 mM Hepes-KOH, 20 mM glucose and 100 mM KCl at pH 7.2. DiSC3 was added to a final concentration of 0.4 µM. Changes in the fluorescence for alteration of the cell plasma membrane potential were continuously monitored at 20 °C at an excitation wavelength of 620 nm and an emission wavelength of 670 nm. When the dye uptake was maximal, as indicated by a stable reduction in the fluorescence as a result of quenching of the accumulated dye in the membrane interior, protein in 5 mM Hepes-KOH buffer at pH 7.2 was added at a final peptide concentration from 1 to 5 μM and incubated for 50 min, to calculate the ED50 concentration. Maximum depolarization was calculated when the fluorescence signal was fully stabilized, and the depolarization percentage was calculated taking Triton X-100 at 10% as a maximum reference value. The time required to reach a stabilized maximum fluorescence reading was recorded for each condition, and the time required to achieve half of total membrane depolarization was estimated from the nonlinear regression curve. All conditions were assayed in duplicate.

[5] = tested on: C. albicans cytoplasmic membrane; assay: Cell membrane permeabilization (Sytox Green uptake); assay type: cell-based, Candida albicans (ATCC 90028); settings: mean ± SEM; for Membrane Permeabilization Max. Perm.: Sytox Green fluorescence, PBS, 50 min; for Membrane Permeabilization Perm.: maximum at final incubation time (50 min), referred to positive control 10 % Triton X-100, Sytox Green
Procedure: Membrane permeabilization was evaluated by using the Sytox® Green uptake assay. Sytox® Green is a cationic cyanine dye which is unable to cross the membrane. When cells’ plasma membrane integrity is compromised, the dye enters into the cell, binding to DNA and triggering a large increase of the fluorescence signal. For Sytox® Green assays, C. albicans cells were grown to mid-exponential growth phase at 30 °C and then centrifuged, washed, and resuspended in PBS. Cell suspensions in PBS (~2 × 10^6 cells/mL) were incubated with 1 μM Sytox® Green for 15 min in the dark prior to the influx assay. At 2 to 4 min after initiating data collection, proteins at 1 and 5 μM final concentration were added to the cell suspension, and the increase in Sytox® Green fluorescence was measured (excitation wavelength at 485 nm and emission at 520 nm) for 50 min in a Cary Eclipse spectrofluorimeter. Fungal cell lysis with 10% Triton X-100 was taken as the maximum fluorescence reference value.

C. albicans [6] = assay: Cell survival assay (Live/Dead kit); assay type: cell-based, Candida albicans (ATCC 90028); settings: survival percentage at final incubation time (120 min), mean ± SEM
Procedure: C. albicans viability assay was performed using the Live⁄Dead® microbial viability kit as previously described. Candida strain was grown at 30 °C to ~5 × 10^6 cells/mL, centrifuged at 5000× g for 5 min and resuspended in a 0.85% NaCl solution, in accordance with the manufacturer instructions. C. albicans cell culture was stained using a SYTO®9/propidium iodide 1:1 mixture. SYTO9/propidium iodide staining allowed us to monitor both the candidal viability in planktonic cell cultures and within the biofilm, as the SYTO9 dye is able to permeate the cell membrane and stain the nucleic acid of viable cells; whereas, when the cell membrane is damaged, propidium iodide can diffuse into the cell and displace SYTO9. The method allows the labelling of intact viable cells and membrane compromised cells, which are labelled in green and red respectively, referred to as live and dead cells. The viability kinetics were monitored using a Cary Eclipse Spectrofluorimeter (Varian Inc., Palo Alto, CA, USA). Cell viability profiles were registered after adding from 1 to 5 µM of final peptide concentration. To calculate the cell viability, the fluorescence in the range of 510–540 nm and 620–650 nm were integrated to obtain the SYTO®9 (live cell) and the propidium iodide (dead cell) signals respectively. Then, the percentage of live bacteria was represented as a function of time.

Molecule: C[C@@H]1[C@H](O)[C@@H](C)/C=C/C=C/C=C/C=C/C=C/C=C/C=C/[C@H](O[C@@H]2O[C@H](C)[C@@H](O)[C@H](N)[C@@H]2O)C[C@@H]2O[C@](O)(C[C@@H](O)C[C@@H](O)[C@H](O)CC[C@@H](O)C[C@@H](O)CC(=O)O[C@H]1C)C[C@H](O)[C@H]2C(=O)O [amphotericin B]
- MFC taken as internal reference (C. albicans [1]): 0.5 µM (≈ 0.462 µg/mL)

Molecule: KESRAKKFQRQHMDSDSSPSSSSTYSNQMMRRRNMTQGRSKPVNTFVH-NH2 [RN1]
- IC50 at 48 h (in vitro): > 50 µM
- MFC100, PBS (C. albicans [2]): 3.75 ± 0.30 µM
- MFC100, Sabouraud Broth (C. albicans [2]): 3.75 ± 0.50 µM
- IC50 [3]: 2.1 ± 0.2 µM
- MAC (minimal agglutination concentration) (C. albicans cells): 1.80 ± 0.40 µM
- Membrane Depolarization ED50 [4]: 4.63 ± 0.70 µM
- Membrane Depolarization Depolmax [4]: 65.2 ± 4.6 AU
- Membrane Permeabilization Max. Perm. [5]: 26.1 ± 0.4 AU
- Membrane Permeabilization Perm. [5]: 8.3 ± 0.4%
- Cell Survival (C. albicans [6]): 67 ± 1%

Molecule: KPKDMTSSQWFKTQHVQPSPQASNSAMSIINKYTERSKDLNTFLH-NH2 [RN8]
- IC50 at 48 h (in vitro): > 50 µM
- IC50 [3]: > 10 µM

Molecule: KPKGMTSSQWFKIQHMQPSPQASNSAMKNINKHTKRSKDLNTFLH-NH2 [RN7]
- IC50 at 48 h (in vitro): > 50 µM
- IC50 [3]: 0.45 ± 0.1 µM

Molecule: KPPQFTKAQWFAIQHISLNPPKSTIAMKAINNYKWKSKNQNTFLK-NH2 [RN3K]
- IC50 at 48 h (in vitro): > 50 µM
- IC50 [3]: 2.08 ± 0.27 µM

Molecule: KPPQFTWAQWFETQHINMTSQQSTNAMQVINNYQRRSKNQNTFLL-NH2 [RN2]
- IC50 at 48 h (in vitro): > 50 µM
- IC50 [3]: > 20 µM

Molecule: QDGMYQRFLRQHVHPEETGGSDRYSNLMMQRRKMTLYHSKRFNTFIH-NH2 [RN4]
- IC50 at 48 h (in vitro): > 50 µM
- MFC100, PBS (C. albicans [2]): 3.75 ± 0.20 µM
- MFC100, Sabouraud Broth (C. albicans [2]): 4.00 ± 0.50 µM
- IC50 [3]: 1.8 ± 0.3 µM
- MAC (minimal agglutination concentration) (C. albicans cells): 0.40 ± 0.10 µM
- Membrane Depolarization ED50 [4]: 3.58 ± 1.60 µM
- Membrane Depolarization Depolmax [4]: 76.2 ± 4.8 AU
- Membrane Permeabilization Max. Perm. [5]: 117 ± 2 AU
- Membrane Permeabilization Perm. [5]: 38.7 ± 0.1%
- Cell Survival (C. albicans [6]): 65 ± 10%

Molecule: QDNSRYTHFLTQHYDAKPQGRDDRYSESIMRRRGLTSPSKDINTFIH-NH2 [RN5]
- IC50 at 48 h (in vitro): > 50 µM
- MFC100, PBS (C. albicans [2]): >20 µM
- MFC100, Sabouraud Broth (C. albicans [2]): >20 µM
- MFC (C. albicans [2]; medium not specified): inactive
- IC50 [3]: > 20 µM
- MAC (minimal agglutination concentration) (C. albicans cells): 1.80 ± 0.40 µM
- Membrane Depolarization ED50 [4]: 1.51 ± 0.10 µM
- Membrane Depolarization Depolmax [4]: 39.1 ± 5.1 AU
- Membrane Permeabilization Max. Perm. [5]: 66.5 ± 0.6 AU
- Membrane Permeabilization Perm. [5]: 21.8 ± 0.4%
- Cell Survival (C. albicans [6]): 39 ± 0.5%

Molecule: RPPQFTRAQWFAIQHISLNPPRSTIAMRAINNYRWRSKNQNTFLR-NH2 [RN3]
- IC50 at 48 h (in vitro): > 50 µM
- IC50 [3]: 0.22 ± 0.05 µM

Molecule: RPRGMTSSQWFRIQHMQPSPQASNSAMRNINRHTRRSRDLNTFLH-NH2 [RN7R]
- IC50 at 48 h (in vitro): > 50 µM
- IC50 [3]: 1.62 ± 0.32 µM

Molecule: WPKRLTKAHWFEIQHIQPSPLQSNRAMSGINNYTQHSKHQNTFLH-NH2 [RN6]
- IC50 at 48 h (in vitro): > 50 µM
- IC50 [3]: 1.8 ± 0.2 µM

Molecule: colistin
- MFC taken as internal reference (C. albicans [1]): 0.25 µM

B1: hRNase7: human ribonuclease 7 of the RNaseA superfamily, parental protein of RN7 (protein, UniProt Q9H1E1 29-156, looked up)
Ribonuclease 7: KPKGMTSSQWFKIQHMQPSPQACNSAMKNINKHTKRCKDLNTFLHEPFSSVAATCQTPKIACKNGDKNCHQSHGAVSLTMCKLTSGKHPNCRYKEKRQNKSYVVACKPPQKKDSQQFHLVPVHLDRVL
- agglutination of C. albicans by the parental hRNase (C. albicans cells; protein tested up to 20 μM): not
